System: Plasmodium berghei
Assay: Luciferase/luciferin-expressing antifolate-resistant parasites were used to infect a culture of HepG2 cells that were pre-incubated with compounds. Infected hepatocytes emit light due to the luciferase reaction. Assay results are presented as the percent inhibition of light emission compared to control. […]
Type: functional
Conditions: sporozoite; for IC90: read-out: LUCIFERASE INFECTION ASSAY - IC90

| Compound | IC90 [µM] | also measured |
| --- | --- | --- |
| CC(C)(C)c1ccc(C(=O)NCc2ccco2)cc1 | 10.4 | IC50 (PBLUC_HILL_SLOPE 5.38, PBLUC_R_SQUARED 0.421, read-out: LUCIFERASE INFECTION ASSAY - IC50): 6.91 µM |
| CCOC(=O)C1=C(c2ccccc2)N=C(N)NC1c1ccc(OCc2ccc(Cl)cc2)c(OC)c1 (stereo not given) | > 10 | IC50 (PBLUC_HILL_SLOPE 5.7, PBLUC_R_SQUARED 0.538, read-out: LUCIFERASE INFECTION ASSAY - IC50): 7.1 µM |
| O=C(Nc1cccc(C(F)(F)F)c1)n1cc(-c2ccccn2)c(N2CCOCC2)n1 | > 7.91 | IC50 (PBLUC_HILL_SLOPE 5.81, PBLUC_R_SQUARED 0.476, read-out: LUCIFERASE INFECTION ASSAY - IC50): 5.62 µM |
| CCN(c1ccccc1)S(=O)(=O)c1ccc(Cl)c(NC(=O)Nc2ccc(Cl)cc2C#N)c1 | 7.06 | IC50 (PBLUC_HILL_SLOPE 5.41, PBLUC_R_SQUARED 0.801, read-out: LUCIFERASE INFECTION ASSAY - IC50): 4.71 µM |
| COc1cc(/C=N/NC(=S)NC2CC3CC2C2C=CCC32)ccc1O (stereo not given) | > 9.23 | IC50 (PBLUC_HILL_SLOPE 5.25, PBLUC_R_SQUARED 0.0239, read-out: LUCIFERASE INFECTION ASSAY - IC50): > 9.23 µM |
| CCCNC(=O)C1(C)CCN(Cc2ccc3ccccc3c2Br)C1 (stereo not given) | > 8.48 | IC50 (PBLUC_HILL_SLOPE 5.63, PBLUC_R_SQUARED 0.42, read-out: LUCIFERASE INFECTION ASSAY - IC50): 5.79 µM |
| c1csc(-c2cn3c(-c4ccncc4)cnc3cn2)c1 | > 11.9 | IC50 (PBLUC_HILL_SLOPE 5.41, PBLUC_R_SQUARED 0.452, read-out: LUCIFERASE INFECTION ASSAY - IC50): 10.5 µM |
| CCOC(=O)c1ccc(Oc2nc3ccccc3nc2C(C#N)C(=O)OC)cc1 (stereo not given) | 7.6 | IC50 (PBLUC_HILL_SLOPE 5.75, PBLUC_R_SQUARED 0.407, read-out: LUCIFERASE INFECTION ASSAY - IC50): 5.19 µM |
| Cc1ccc2c(Cl)cc(Cl)c(OCN3C(=O)c4ccccc4C3=O)c2n1 | 5.83 | IC50 (PBLUC_HILL_SLOPE 5.8, PBLUC_R_SQUARED 0.551, read-out: LUCIFERASE INFECTION ASSAY - IC50): 3.99 µM |
| COc1cc(NC(=O)N2Cc3cnc(Nc4ccc(Oc5ccccc5)cc4)nc3C2)cc(OC)c1OC | > 6.43 | IC50 (PBLUC_HILL_SLOPE 5.21, PBLUC_R_SQUARED 0.0507, read-out: LUCIFERASE INFECTION ASSAY - IC50): 5.26 µM |
| COC(=O)c1cccc(C(=O)Nc2nccn2Cc2ccccc2)c1 | 9.3 | IC50 (PBLUC_HILL_SLOPE 5.71, PBLUC_R_SQUARED 0.673, read-out: LUCIFERASE INFECTION ASSAY - IC50): 6.33 µM |
| Cc1c(C(=O)OCc2ccc(C(C)C)cc2)sc2nc3n(c(=O)c12)CCC3 | > 10 | IC50 (PBLUC_HILL_SLOPE 5.57, PBLUC_R_SQUARED 0.253, read-out: LUCIFERASE INFECTION ASSAY - IC50): 6.97 µM |
| O=C(CSc1nc2sc3c(c2c(=O)n1-c1cccc(C(F)(F)F)c1)CCCC3)NC12CC3CC(CC(C3)C1)C2 | 7.89 | IC50 (PBLUC_HILL_SLOPE 5.84, PBLUC_R_SQUARED 0.777, read-out: LUCIFERASE INFECTION ASSAY - IC50): 5.41 µM |
| C=CCn1c(SCC(=O)c2cc(C)n(-c3cc(F)ccc3F)c2C)nc2scc(-c3ccccc3)c2c1=O | 8.56 | IC50 (PBLUC_HILL_SLOPE 5.29, PBLUC_R_SQUARED 0.561, read-out: LUCIFERASE INFECTION ASSAY - IC50): 5.65 µM |
| Cc1nn(Cc2ccccc2Cl)c(C)c1C(=O)Nc1nc(-c2ccccn2)cs1 | 6.51 | IC50 (PBLUC_HILL_SLOPE 5.44, PBLUC_R_SQUARED 0.0706, read-out: LUCIFERASE INFECTION ASSAY - IC50): 4.34 µM |
| O=C(c1cc(-c2ccccc2)nc2ccccc12)N1N=CCC1(O)C(F)(F)F (stereo not given) | 8.59 | IC50 (PBLUC_HILL_SLOPE 5.58, 3.40, PBLUC_R_SQUARED 0.0168, 0.865, read-out: LUCIFERASE INFECTION ASSAY - IC50): 4.5 µM |
| C/N=c1\scc(-c2ccccc2OC)n1/N=C/c1ccc[nH]1 | 0.0612 | IC50 (PBLUC_HILL_SLOPE 6.06, PBLUC_R_SQUARED 0.259, read-out: LUCIFERASE INFECTION ASSAY - IC50): 0.0426 µM |
| Cc1c(C)c(C)c(S(=O)(=O)Oc2ccccc2N2CC(C)OC(C)C2)c(C)c1C (stereo not given) | > 7.9 | IC50 (PBLUC_HILL_SLOPE 5.73, PBLUC_R_SQUARED 0.021, read-out: LUCIFERASE INFECTION ASSAY - IC50): > 7.9 µM |
| Clc1ccccc1-c1cn2c(-c3ccncc3)cnc2cn1 | > 10.8 | IC50 (PBLUC_HILL_SLOPE 5.69, PBLUC_R_SQUARED 0.296, read-out: LUCIFERASE INFECTION ASSAY - IC50): 10.2 µM |
| CCC(C)NC(=O)c1c(NC(=O)c2ccc(C)cc2)nc2ccc(C)cn12 (stereo not given) | 7.69 | IC50 (PBLUC_HILL_SLOPE 5.31, PBLUC_R_SQUARED 0.131, read-out: LUCIFERASE INFECTION ASSAY - IC50): 5.08 µM |

| Compound | IC90 [µM] | also measured |
| --- | --- | --- |
| CCN(C(=O)c1ccc(NC(=O)C2CC2)s1)c1ccccc1C | > 10 | IC50 (PBLUC_HILL_SLOPE 5.48, PBLUC_R_SQUARED 0.146, read-out: LUCIFERASE INFECTION ASSAY - IC50): 9.18 µM |
| O=C(NCc1sccc1Cl)Nc1cccc(Cl)c1 | > 11 | IC50 (PBLUC_HILL_SLOPE 5.24, PBLUC_R_SQUARED 0.165, read-out: LUCIFERASE INFECTION ASSAY - IC50): 7.24 µM |
| CC(=O)c1cccc(-c2cnc3cnc(-c4ccc(CO)cc4)cn23)c1 | > 9.61 | IC50 (PBLUC_HILL_SLOPE 6.05, PBLUC_R_SQUARED 0.635, read-out: LUCIFERASE INFECTION ASSAY - IC50): 7.62 µM |
| O=C(CCc1c(-c2ccc(F)cc2)[nH]c2ccc(F)cc12)N1CCN(c2ccncc2)CC1 | 8.48 | IC50 (PBLUC_HILL_SLOPE 5.15, PBLUC_R_SQUARED 0.285, read-out: LUCIFERASE INFECTION ASSAY - IC50): 5.53 µM |
| Cc1cc(C)n(-c2nc(C)c(Br)c(NC(C)c3ccccc3)n2)n1 (stereo not given) | > 8.54 | IC50 (PBLUC_HILL_SLOPE 5.33, PBLUC_R_SQUARED 0.256, read-out: LUCIFERASE INFECTION ASSAY - IC50): 5.95 µM |
| CC(C)Oc1cccc(-c2cn3c(-c4ccc(C(=O)NC5CC5)cc4)cnc3cn2)c1 | 7.18 | IC50 (PBLUC_HILL_SLOPE 5.31, PBLUC_R_SQUARED 0.43, read-out: LUCIFERASE INFECTION ASSAY - IC50): 4.75 µM |
| CCC(Nc1nc(C(F)(F)F)nc2ccccc12)c1ccc(Br)cc1 (stereo not given) | > 10 | IC50 (PBLUC_HILL_SLOPE 5.54, PBLUC_R_SQUARED 0.0475, read-out: LUCIFERASE INFECTION ASSAY - IC50): > 10 µM |
| CN(C)CCNC(=O)c1cccc(-c2cnc3ccc(-c4cccc(F)c4)nn23)c1 | 9.29 | IC50 (PBLUC_HILL_SLOPE 5.28, PBLUC_R_SQUARED 0.0552, read-out: LUCIFERASE INFECTION ASSAY - IC50): 6.13 µM |
| c1ccc2[nH]c(CN3CCN(Cc4csc5ccccc45)CC3)nc2c1 | > 10 | IC50 (PBLUC_HILL_SLOPE 5.23, 12.9, PBLUC_R_SQUARED 0.488, 0.411, read-out: LUCIFERASE INFECTION ASSAY - IC50): 9.2 µM |
| NC(=O)NC(CC(=O)OCC(=O)Nc1ccccc1-c1ccccc1)c1ccc(Cl)cc1 (stereo not given) | > 10 | IC50 (PBLUC_HILL_SLOPE 5.92, PBLUC_R_SQUARED 0.131, read-out: LUCIFERASE INFECTION ASSAY - IC50): > 10 µM |
| CCCNC(=O)c1c(NC(=O)c2ccc(C)cc2)nc2ccccn12 | 9.6 | IC50 (PBLUC_HILL_SLOPE 5.82, PBLUC_R_SQUARED 0.26, read-out: LUCIFERASE INFECTION ASSAY - IC50): 6.58 µM |
| OCc1ccc(-c2cnc3cnc(-c4cccnc4)cn23)cc1 | 7.72 | IC50 (PBLUC_HILL_SLOPE 5.76, PBLUC_R_SQUARED 0.27, read-out: LUCIFERASE INFECTION ASSAY - IC50): 5.27 µM |
| Cc1[nH]c2ccccc2c1C(=O)C(=O)Nc1ccc(N2CCCCC2)nc1 | 9.82 | IC50 (PBLUC_HILL_SLOPE 5.45, PBLUC_R_SQUARED 0.664, read-out: LUCIFERASE INFECTION ASSAY - IC50): 6.56 µM |
| N#Cc1ccc(Cl)cc1NC(=O)CNc1cc(C(F)(F)F)ccc1N1CCCC1 | 4.15 | IC50 (PBLUC_HILL_SLOPE 5.67, PBLUC_R_SQUARED 0.48, read-out: LUCIFERASE INFECTION ASSAY - IC50): 2.82 µM |
| Cc1nn2c(nc(Sc3nnnn3C(C)C)c3ccccc32)c1Cl | > 10 | IC50 (PBLUC_HILL_SLOPE 6.07, PBLUC_R_SQUARED 0.112, read-out: LUCIFERASE INFECTION ASSAY - IC50): 8.31 µM |
| O=C(Nc1ccc(-c2nc3ccccc3[nH]2)cc1)c1cccc(N2CCCS2(=O)=O)c1 | 9.62 | IC50 (PBLUC_HILL_SLOPE 5.48, 3.67, PBLUC_R_SQUARED 0.355, 0.637, read-out: LUCIFERASE INFECTION ASSAY - IC50): 5.88 µM |
| CCCOc1cccc(NC(=O)c2cc(CC(C)C)oc2C)c1 | 10.1 | IC50 (PBLUC_HILL_SLOPE 5.71, PBLUC_R_SQUARED 0.294, read-out: LUCIFERASE INFECTION ASSAY - IC50): 6.86 µM |
| CN(C)C(=O)c1cccc(-c2cn3c(-c4ccc5ncccc5c4)cnc3cn2)c1 | > 8.39 | IC50 (PBLUC_HILL_SLOPE 5.92, PBLUC_R_SQUARED 0.583, read-out: LUCIFERASE INFECTION ASSAY - IC50): 5.83 µM |
| COc1ccc(CCn2nc(C(=O)NC3CC3)c3c2CCN(C(=O)c2cc(C)n[nH]2)C3)cc1 | 4.91 | IC50 (PBLUC_HILL_SLOPE 5.54, PBLUC_R_SQUARED 0.701, read-out: LUCIFERASE INFECTION ASSAY - IC50): 3.31 µM |
| COc1ccc(-c2cnc3ccc(NCc4cccc(Cl)c4)nn23)cn1 | 7.71 | IC50 (PBLUC_HILL_SLOPE 5.4, PBLUC_R_SQUARED 0.229, read-out: LUCIFERASE INFECTION ASSAY - IC50): 5.13 µM |
